Source: patent US9408796B2, “Cosmetic compositions for improving the appearance of skin” (Avon Products, Inc., priority 2013, dated 2016)

Tests used:
[1] = test system: Human dermal fibroblasts; test: Collagen stimulation: procollagen type I C-peptide (PIP) EIA on conditioned medium; format: cell-based; conditions: 0.0005% compound, 48-hour incubation, increase in collagen over the vehicle control
Method: (§1) Collagen. Human dermal fibroblasts (Cascade Biologics, Portland, Oreg.) were plated at in 96-well culture plates in supplemented medium (DMEM, 10% Fetal Bovine Serum, 1% Penicillin/Streptomycin and 1% L-Glutamine) overnight in humidified atmosphere of 10% CO2 at 37° C. The following day, the medium was replaced with fresh medium (DMEM, 1% Penicillin/Streptomycin and 1% L-Glutamine) and the actives dissolved in a vehicle were added to the wells in triplicate. Vehicle was used as control. Following 48-hour incubation, the plates were removed from the incubator and the medium from each well was collected for the procollagen assay.
Collage production was measured using procollagen type I C-peptide (PIP) EIA kit (Takara Bio, Inc., Japan). Briefly, the conditioned medium was diluted 1:10 in Sample Diluent. 20 μl of diluted conditioned medium and 100 μl of antibody-POD conjugate solution were added to the wells of the Takara ELISA plate. The ELISA plate was incubated at 37° C. for 3 hours before the wells were washed four times with 400 μl of 1×PBS. At the end of wash, 100 μl of substrate solution (supplied with kit) was added to the wells and incubated at room temperature for 15 minutes. […] The absorbance was measured on a spectrophotometer at 450 nm wavelength. The amount of procollagen peptide in the conditioned medium was calculated from the standard curve. […]

[2] = test system: Human dermal fibroblasts; test: Hyaluronic acid stimulation: hyaluronic acid test kit on conditioned medium; format: cell-based; conditions: 0.0005% compound, 48-hour incubation, increase in hyaluronic acid over the vehicle control
Method: as §1, with “Human” for “Collagen. Human”, “hyaluronic acid” for “procollagen”
Hyaluronic acid production was measured using hyaluronic acid test kit (Corgenix, Inc. CO, USA). Briefly, 100 μl diluted conditioned medium was added to appropriate microwells and was incubated for 60 minutes at room temperature. After the incubation is complete, the conditioned medium was removed and 100 μl HRP-conjugated HABP solution was added to each well and incubated for 30 minutes at room temperature. Wash each well 4 times with PBS after the incubation is complete. Add 100 μl One-component Substrate Solution to each well and incubate for 30 minutes at room temperature. Add 100 μl Stopping Solution to stop the enzyme reaction and read the O.D. of each well at 450 nm. The amount of hyaluronic acid in the conditioned medium was calculated from the standard curve. […]

SMILES	Collagen stimulation [1]	Hyaluronic acid stimulation [2]
COc1ccccc1CNc1nc(-c2ccc(O)c(C(N)=O)c2)cs1 [Formula I(c)]	+ (The “+” describes a stimulation of between 21-40%)	–
COc1cccc(-c2nc(-c3ccc(O)c(C(N)=O)c3)cs2)c1OC [Formula I(d)]	+ (The “+” describes a stimulation of between 21-40%)	+ (The “+” describes a stimulation of between 21-40%)
